Drawing on patent publication US10849907B2, “Imidazopyridine derivatives and the use thereof as medicament” (Boehringer Ingelheim International GmbH, priority 2017, dated 2020), this text covers IC50 for 17 compounds.

What is called IC50 is the concentration that inhibits the measured activity by half.

This assay has as its target T1, NMDA NR1/NR2B receptor (Homo sapiens, UniProt Q05586+Q13224).
T1 construct: host or cells: HEK293, tetracycline-inducible expression
The assay is described as follows: In vitro NMDA NR1/NR2b cell assay (FLIPR, intracellular calcium induced by glycine/glutamate). The class given is cell-based. Particulars: HEK293 cells expressing NMDA NR1/NR2B, 20 μM glycine, 1 μM glutamate, compounds of the invention (Table 1). The protocol: A human HEK293 cell line with tetracyclin-inducible expression of NMDA NR1/NR2B receptor was used as a test system for compound efficacy and potency. The cell line was purchased from ChanTest, Catalog # CT6121. Compound activity was determined by measuring the effect of compounds on intracellular calcium concentration induced by glycine/glutamate agonism in a FLIPRtetra system (Molecular Devices).
The cells were obtained as frozen cells in cryo-vials and stored until use at −150° C. Cells were grown in culture medium (DMEM/F12, 10% FBS, 5 μg/mL Blasticidin, 150 μg/mL Zeozin, 500 μg/mL Geneticin). […] For sub-culturing the cells were detached from flasks by Versene. For the assay, cells were detached, washed twice with induction medium (DMEM/F12 without glutamine, 10% FBS, 2 μg/mL Tetracycline, 2 mM Ketamine) and seeded to 384 well pure coat amine plates (BD 359324, 50000 cells per well in 50 μl) 48 h prior to assay in induction medium.
The test compounds were dissolved in 100% DMSO at a concentration of 10 mM and in a first step diluted in DMSO to a concentration of 5 mM, followed by serial dilution steps in 100% DMSO. Dilution factor and number of dilution steps may vary according to needs. Typically 8 different concentrations by 1:5 dilutions were prepared in duplicate, further intermediate dilutions (1:37.5) of the substances were carried out with aqueous assay buffer (137 mM NaCl, 4 mM KCl, 1.8 mM CaCl, 10 mM HEPES, 10 mM Glucose, pH 7.4) resulting in a compound concentration 3 times above the final test concentration and DMSO at 2.7% resulting in 0.9% final DMSO concentration in the assay.
At the assay day cells were washed 3× with assay puffer, 10 μL buffer remained in the wells after washing. 10 μL Ca kit loading buffer (AAT Bioquest) was added to the cells and the plates were incubated with lid for 60 minutes at r.t. 20 μl assay buffer containing 60 μM glycine (20 μM final) and 3 μM glutamate (1 μM final) was added to column 1-23. Fluorescence (indicating the calcium influx as a result of the NR1/NR2B ion channel activation) was read on the FLIPRtetra device for 60 seconds to monitor the glutamate induced effects. After 2 minutes 20 μL of compound or controls (row 1-22) in assay buffer were carefully added to the wells. […] The average of 2 measurements at 5 minutes and 5 min 10 seconds after compound addition is calculated and further used for IC50 calculations. Each assay microtiter plate contained wells (in column 23 or 24) with DMSO controls instead of compound as controls for glycine/glutamate induced fluorescence (high controls) and wells with 1 μM of a reference NR2b NAM as low controls (Compound 22; reference: Layton, Mark E et al, ACS Chemical Neuroscience 2011, 2(7), 352-362).
The output file of the reader contains the well number and measured average fluorescence units. For data evaluation and calculation, the measurement of the low control was set as 0% control and the measurement of the high control was set as 100% control. The IC50 values were calculated using the standard 4 parameter logistic regression formula. Calculation: [y=(a−d)/(1+(x/c)^b)+d], a=low value, d=high value; x=conc M; c=IC50 M; b=slope.

T1 sequence (Q13224 27-1484, other chains not shown): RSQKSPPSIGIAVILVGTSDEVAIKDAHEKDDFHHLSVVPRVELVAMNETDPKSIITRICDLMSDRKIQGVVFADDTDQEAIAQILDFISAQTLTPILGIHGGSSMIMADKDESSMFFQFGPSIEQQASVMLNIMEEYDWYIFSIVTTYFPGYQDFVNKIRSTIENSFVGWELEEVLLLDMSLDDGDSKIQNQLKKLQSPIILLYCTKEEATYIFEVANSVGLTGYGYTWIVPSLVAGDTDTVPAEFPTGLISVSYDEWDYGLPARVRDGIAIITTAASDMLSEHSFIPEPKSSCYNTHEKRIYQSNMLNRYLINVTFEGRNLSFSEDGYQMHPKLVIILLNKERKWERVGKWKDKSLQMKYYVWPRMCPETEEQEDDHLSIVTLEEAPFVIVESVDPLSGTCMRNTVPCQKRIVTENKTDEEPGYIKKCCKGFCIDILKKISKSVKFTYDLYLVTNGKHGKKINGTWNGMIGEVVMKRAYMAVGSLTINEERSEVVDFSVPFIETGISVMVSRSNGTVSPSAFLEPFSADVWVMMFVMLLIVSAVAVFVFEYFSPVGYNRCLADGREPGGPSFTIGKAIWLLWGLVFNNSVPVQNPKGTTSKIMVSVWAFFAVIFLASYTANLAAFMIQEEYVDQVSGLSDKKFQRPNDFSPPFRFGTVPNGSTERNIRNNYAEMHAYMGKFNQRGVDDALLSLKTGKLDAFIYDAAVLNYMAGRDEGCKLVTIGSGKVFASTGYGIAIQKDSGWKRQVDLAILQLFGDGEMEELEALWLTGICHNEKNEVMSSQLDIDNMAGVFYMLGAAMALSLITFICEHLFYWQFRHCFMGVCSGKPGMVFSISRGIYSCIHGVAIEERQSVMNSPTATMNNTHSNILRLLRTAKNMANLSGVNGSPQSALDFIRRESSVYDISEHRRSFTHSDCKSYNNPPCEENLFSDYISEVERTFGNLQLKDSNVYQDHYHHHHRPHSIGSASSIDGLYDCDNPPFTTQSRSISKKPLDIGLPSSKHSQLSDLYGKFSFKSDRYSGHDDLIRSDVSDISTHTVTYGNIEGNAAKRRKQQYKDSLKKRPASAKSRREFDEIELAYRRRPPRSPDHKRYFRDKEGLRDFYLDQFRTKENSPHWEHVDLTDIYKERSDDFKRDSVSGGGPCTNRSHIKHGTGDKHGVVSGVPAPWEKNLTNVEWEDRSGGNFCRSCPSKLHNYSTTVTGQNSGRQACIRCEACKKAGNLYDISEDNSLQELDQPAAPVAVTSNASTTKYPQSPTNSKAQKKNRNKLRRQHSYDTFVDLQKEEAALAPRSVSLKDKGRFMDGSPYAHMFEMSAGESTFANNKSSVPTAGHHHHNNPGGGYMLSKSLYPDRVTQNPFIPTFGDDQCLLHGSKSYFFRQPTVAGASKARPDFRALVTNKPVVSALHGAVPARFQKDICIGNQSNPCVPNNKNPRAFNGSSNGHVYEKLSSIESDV

For the compound `O=C(OCc1cccc(F)c1)N1CCO[C@H](c2nc3cccnc3[nH]2)C1` [Example 1], the IC50 was found to be 0.409 µM. In the case of `O=C(OCc1ccc(F)cc1)N1CCO[C@H](c2nc3cccnc3[nH]2)C1` [Example 2] it was 0.083 µM; in that of `Cc1ccccc1COC(=O)N1CCO[C@H](c2nc3cccnc3[nH]2)C1` [Example 8], 0.404 µM. In the case of `Cc1cccc(F)c1COC(=O)N1CCO[C@H](c2nc3cccnc3[nH]2)C1` [Example 10] it was 0.156 µM; in that of `Cc1ccc(COC(=O)N2CCO[C@H](c3nc4cccnc4[nH]3)C2)c(F)c1` [Example 11], 0.055 µM. `Cc1ccc(COC(=O)N2CCO[C@H](c3nc4cccnc4[nH]3)C2)cc1F` [Example 12]: the IC50 was 0.073 µM. Take `O=C(OCc1ccc(F)cc1Cl)N1CCO[C@H](c2nc3cccnc3[nH]2)C1` [Example 13]: the concentration for half-maximal inhibition (IC50) was determined as 0.122 µM. Turning to `O=C(OCc1ccccc1Cl)N1CCO[C@H](c2nc3cccnc3[nH]2)C1` [Example 14], the concentration for half-maximal inhibition (IC50) amounted to 0.121 µM. Turning to `O=C(OCc1cccc(F)c1F)N1CCO[C@H](c2nc3cccnc3[nH]2)C1` [Example 15], the IC50 stood at 0.093 µM. Turning to `O=C(OCc1c(F)cccc1F)N1CCO[C@H](c2nc3cccnc3[nH]2)C1` [Example 16], the concentration for half-maximal inhibition (IC50) worked out at 0.104 µM. On to `O=C(OCc1ccccc1)N1CCO[C@H](c2nc3cccnc3[nH]2)C1` [Example 17], for which the 50% inhibitory concentration (IC50) is 0.076 µM. As for `Cc1ccc(COC(=O)N2CCO[C@H](c3nc4cccnc4[nH]3)C2)cc1` [Example 18], the IC50 stood at 0.054 µM.

In the case of `O=C(OCc1ccc(F)cc1F)N1CCO[C@H](c2nc3cccnc3[nH]2)C1` [Example 19], the IC50 came to 0.128 µM. Consider `O=C(OCc1ccc(C(F)F)cc1)N1CCO[C@H](c2nc3cccnc3[nH]2)C1` [Example 26], for which the half-inhibitory concentration (IC50) is 0.078 µM. For `O=C(OCc1ccccc1F)N1CCO[C@H](c2nc3cccnc3[nH]2)C1` [Example 27], the 50% inhibitory concentration (IC50) stood at 0.095 µM. For the compound `O=C(OCc1ccc(Cl)cc1)N1CCO[C@H](c2nc3cccnc3[nH]2)C1` [Example 28], the half-inhibitory concentration (IC50) is 0.042 µM.

As for `Cc1ccc(COC(=O)N2CCO[C@H](c3nc4cc(F)cnc4[nH]3)C2)cc1` [Example 31], the IC50 came to 0.132 µM.
